Reference: patent publication US11952586B2, “B-cell cultivation method” (Hoffmann-La Roche Inc., priority 2017, dated 2024)

Tested on: single deposited B-cells
Test: co-cultivation of single deposited B-cells with EL-4 B5 cells; antigen binding immunoassay (HSA)
Type: cell-based, rabbit
Method: Single cell sorted B-cells were cultured in 96-well plates with 200 μl/well EL-4 B5 medium with Pansorbin Cells (SAC) (Calbiochem (Merck), Darmstadt, Deutschland), EL-4 B5 cells (0-5×10^4/well) and rabbit thymocyte supernatant or cytokine mix, respectively, for 7 days at 37° C. in an atmosphere of 5% CO2 in the incubator. B-cell culture supernatants were removed for screening and the cells harvested immediately for variable region gene cloning or frozen at −80° C. in 100 μl RLT buffer (Qiagen, Hilden, Germany).
The assay was performed at room temperature (RT) on 384-well MaxiSorp microtiter plates (Thermo Scientific) with PBS (phosphate buffered saline) buffer supplemented with 0.5% Gelatin and 0.025% Tween®-20. The plates were coated with 0.5 μg/ml of human serum albumin (HSA, Sigma-Aldrich) for at least 2 hours to overnight. After washing (3×) with PBST (PBS with 0.1% Tween®-20) buffer the wells were blocked with PBS with 0.5% Gelatin and 0.1% Tween®-20. Again, the plates were washed three-times and afterwards dilutions of B-cell supernatants were added. After an incubation of 60 min and 3 washing steps with PBST a 1:4,000 dilution of a HRP-conjugated anti-rabbit IgG antibody (Amersham) was transferred to the wells and incubated for 60 min. Finally, the plates were repeatedly washed (6×) with PBST and developed with BM Blue® HRP substrate solution for 30 min. Absorbance was measured at 392-405 nm.

[1] = PMA 0.048 ng/ml, 3 Gy, 15k/Well
[2] = PMA 0.048 ng/ml, 4 Gy, 20k/Well
[3] = PMA 0.048 ng/ml, 5 Gy, 20k/Well
[4] = PMA 0.048 ng/ml, 8 Gy, 20k/Well
[5] = PMA 0.048 ng/ml, 50 Gy, 50k/Well
[6] = PMA 0.109 ng/ml, 3 Gy, 15k/Well
[7] = PMA 0.109 ng/ml, 4 Gy, 20k/Well
[8] = PMA 0.109 ng/ml, 5 Gy, 20k/Well
[9] = PMA 0.109 ng/ml, 8 Gy, 20k/Well
[10] = PMA 0.109 ng/ml, 50 Gy, 50k/Well
[11] = PMA 0.25 ng/ml, 50 Gy, 50k/Well
[12] = PMA 0.57 ng/ml, 50 Gy, 50k/Well
[13] = PMA 1.3 ng/ml, 3 Gy, 15k/Well, HSA immunized rabbit

SMILES: CCCCCCCCCCCCCC(=O)O[C@@H]1[C@@H](C)[C@@]2(O)[C@@H](C=C(CO)C[C@]3(O)C(=O)C(C)=C[C@@H]23)[C@@H]2C(C)(C)[C@]12OC(C)=O [PMA, phorbol-12-myristate-13-acetate]
- HSA (absolute corrected) Freq./plate OD>c [1]: 25 % total
- HSA (absolute corrected) Freq./plate OD>c and rbIgG+ [1]: 48.8 % IgG
- HSA (absolute corrected) Freq./plate OD>c [2]: 36.9 % total
- HSA (absolute corrected) Freq./plate OD>c and rbIgG+ [2]: 50 % IgG
- HSA (absolute corrected) Freq./plate OD>c [3]: 27.4 % total
- HSA (absolute corrected) Freq./plate OD>c and rbIgG+ [3]: 38.3 % IgG
- HSA (absolute corrected) Freq./plate OD>c [4]: 42.9 % total
- HSA (absolute corrected) Freq./plate OD>c and rbIgG+ [4]: 49.3 % IgG
- HSA (absolute corrected) Freq./plate OD>c [5]: 14.3 % total
- HSA (absolute corrected) Freq./plate OD>c and rbIgG+ [5]: 58.3 % IgG
- HSA (absolute corrected) Freq./plate OD>c [6]: 9.5 % total
- HSA (absolute corrected) Freq./plate OD>c and rbIgG+ [6]: 17.5 % IgG
- HSA (absolute corrected) Freq./plate OD>c [7]: 32.1 % total
- HSA (absolute corrected) Freq./plate OD>c and rbIgG+ [7]: 42.2 % IgG
- HSA (absolute corrected) Freq./plate OD>c [8]: 42.9 % total
- HSA (absolute corrected) Freq./plate OD>c and rbIgG+ [8]: 47.1 % IgG
- HSA (absolute corrected) Freq./plate OD>c [9]: 32.1 % total
- HSA (absolute corrected) Freq./plate OD>c and rbIgG+ [9]: 41.5 % IgG
- HSA (absolute corrected) Freq./plate OD>c [10]: 9.5 % total
- HSA (absolute corrected) Freq./plate OD>c and rbIgG+ [10]: 50 % IgG
- HSA (absolute corrected) Freq./plate OD>c (PMA 0.25 ng/ml, 3 Gy, 15k/Well): 21.4 % total
- HSA (absolute corrected) Freq./plate OD>c and rbIgG+ (PMA 0.25 ng/ml, 3 Gy, 15k/Well): 45 % IgG
- HSA (absolute corrected) Freq./plate OD>c (PMA 0.25 ng/ml, 4 Gy, 20k/Well): 33.3 % total
- HSA (absolute corrected) Freq./plate OD>c and rbIgG+ (PMA 0.25 ng/ml, 4 Gy, 20k/Well): 44.4 % IgG
- HSA (absolute corrected) Freq./plate OD>c (PMA 0.25 ng/ml, 5 Gy, 20k/Well): 32.1 % total
- HSA (absolute corrected) Freq./plate OD>c and rbIgG+ (PMA 0.25 ng/ml, 5 Gy, 20k/Well): 38 % IgG
- HSA (absolute corrected) Freq./plate OD>c (PMA 0.25 ng/ml, 8 Gy, 20k/Well): 32.1 % total
- HSA (absolute corrected) Freq./plate OD>c and rbIgG+ (PMA 0.25 ng/ml, 8 Gy, 20k/Well): 36.5 % IgG
- HSA (absolute corrected) Freq./plate OD>c [11]: 13.1 % total
- HSA (absolute corrected) Freq./plate OD>c and rbIgG+ [11]: 47.1 % IgG
- HSA (absolute corrected) Freq./plate OD>c (PMA 0.57 ng/ml, 3 Gy, 15k/Well): 11.9 % total
- HSA (absolute corrected) Freq./plate OD>c and rbIgG+ (PMA 0.57 ng/ml, 3 Gy, 15k/Well): 33.3 % IgG
- HSA (absolute corrected) Freq./plate OD>c (PMA 0.57 ng/ml, 4 Gy, 20k/Well): 26.2 % total
- HSA (absolute corrected) Freq./plate OD>c and rbIgG+ (PMA 0.57 ng/ml, 4 Gy, 20k/Well): 36.1 % IgG
- HSA (absolute corrected) Freq./plate OD>c (PMA 0.57 ng/ml, 5 Gy, 20k/Well): 38.1 % total
- HSA (absolute corrected) Freq./plate OD>c and rbIgG+ (PMA 0.57 ng/ml, 5 Gy, 20k/Well): 43.8 % IgG
- HSA (absolute corrected) Freq./plate OD>c (PMA 0.57 ng/ml, 8 Gy, 20k/Well): 35.7 % total
- HSA (absolute corrected) Freq./plate OD>c and rbIgG+ (PMA 0.57 ng/ml, 8 Gy, 20k/Well): 44.1 % IgG
- HSA (absolute corrected) Freq./plate OD>c [12]: 40.5 % total
- HSA (absolute corrected) Freq./plate OD>c and rbIgG+ [12]: 46.5 % IgG
- HSA (absolute corrected) Freq./plate OD>c [13]: 3.6 % total
- HSA (absolute corrected) Freq./plate OD>c and rbIgG+ [13]: 42.9 % IgG
- HSA (absolute corrected) Freq./plate OD>c (PMA 1.3 ng/ml, 4 Gy, 20k/Well): 31 % total
- HSA (absolute corrected) Freq./plate OD>c and rbIgG+ (PMA 1.3 ng/ml, 4 Gy, 20k/Well): 42.6 % IgG
- HSA (absolute corrected) Freq./plate OD>c (PMA 1.3 ng/ml, 5 Gy, 20k/Well): 34.5 % total
- HSA (absolute corrected) Freq./plate OD>c and rbIgG+ (PMA 1.3 ng/ml, 5 Gy, 20k/Well): 40.8 % IgG
- HSA (absolute corrected) Freq./plate OD>c (PMA 1.3 ng/ml, 8 Gy, 20k/Well): 36.9 % total
- HSA (absolute corrected) Freq./plate OD>c and rbIgG+ (PMA 1.3 ng/ml, 8 Gy, 20k/Well): 40.5 % IgG
- HSA (absolute corrected) Freq./plate OD>c (PMA 1.3 ng/ml, 50 Gy, 50k/Well): 40.5 % total
- HSA (absolute corrected) Freq./plate OD>c and rbIgG+ (PMA 1.3 ng/ml, 50 Gy, 50k/Well): 47.1 % IgG
